Experimental data from ChEMBL document CHEMBL4359860, “Tacrine-O-protected phenolics heterodimers as multitarget-directed ligands against Alzheimer's disease: Selective subnanomolar BuChE inhibitors” (Eur J Med Chem, 2019).
Activity calls are given as the source filed them. No cut-off for these calls is given here.

What was measured:
Cholinesterase [1] = biological target: T1, Cholinesterase (Homo sapiens, UniProt P06276); assay: Inhibition of human serum BuChe by Ellman's method
[2] = biological target: Amyloid-beta precursor protein (Homo sapiens) (UniProt P05067); details: at 50 µM
Description: Inhibition of amyloid beta (1 to 42) (unknown origin) self aggregation at 50 uM incubated for 48 hrs by thioflavin-T fluorescence method relative to control

Cholinesterase [3] = biological target: T2, Cholinesterase (Equus caballus, UniProt P81908)
Description: Inhibition of equine serum BuChE assessed as dissociation constant for enzyme-inhibitor complex using butyrylthiocholine iodide as substrate measured for 125 secs by Ellman's method

Cholinesterase [4] = biological target: T2, Cholinesterase; remark: listed apart in the source
Description: Inhibition of equine serum BuChE assessed as dissociation constant for enzyme-substrate-inhibitor complex using butyrylthiocholine iodide as substrate measured for 125 secs by Ellman's method

Acetylcholinesterase [5] = biological target: T3, Acetylcholinesterase (Electrophorus electricus, UniProt O42275)
Description: Inhibition of electric eel AChE assessed as dissociation constant for enzyme-substrate-inhibitor complex using acetylthiocholine iodide as substrate measured for 125 secs by Ellman's method

Acetylcholinesterase [6] = biological target: T3, Acetylcholinesterase; remark: listed apart in the source
Description: Inhibition of electric eel AChE assessed as dissociation constant for enzyme-inhibitor complex using acetylthiocholine iodide as substrate measured for 125 secs by Ellman's method

Acetylcholinesterase [7] = biological target: Acetylcholinesterase (Homo sapiens, UniProt P22303); assay: Inhibition of human recombinant AChE expressed in HEK293 cells using […] as substrate preincubated with enzyme for 20 mins followed by substrate addition and measured after 5 mins by Ellman's method
HBL-100 = assay: Antiproliferative activity against human HBL100 cells assessed as growth inhibition after 48 hrs by SRB assay; assay type: functional; details: HBL-100, 48 h
WiDr [8] = assay: Antiproliferative activity against human WiDr cells assessed as growth inhibition after 48 hrs by SRB assay; assay type: functional
A549 = assay: Antiproliferative activity against human A549 cells assessed as growth inhibition after 48 hrs by SRB assay; assay type: functional; details: A549, 48 h
HeLa = assay: Antiproliferative activity against human HeLa cells assessed as growth inhibition after 48 hrs by SRB assay; assay type: functional
[9] = Cytotoxicity against human hTERT-BJ cells assessed as growth inhibition after 48 hrs by SRB assay; assay type: cell-based
[10] = biological target: Cholinesterase (Equus caballus) (UniProt P81908)
SW1573 = assay: Antiproliferative activity against human SW1573 cells assessed as growth inhibition after 48 hrs by SRB assay; assay type: functional; details: SW1573, 48 h
T47D [11] = assay: Antiproliferative activity against human T47D cells assessed as growth inhibition after 48 hrs by SRB assay; assay type: functional
[12] = biological target: Cholinesterase (Equus caballus) (UniProt P81908); remark: listed apart in the source
WiDr [13] = assay: Potency index, ratio of 5-FU GI50 to compound GI50 for human WiDr cells after 48 hrs by SRB assay; assay type: functional
T47D [14] = assay: Potency index, ratio of 5-FU GI50 to compound GI50 for human T47D cells after 48 hrs by SRB assay; assay type: functional
[15] = Selectivity index, ratio of GI50 for human hTERT-BJ cells to GI50 for human T47D cells after 48 hrs by SRB assay; assay type: toxicity; details: hTERT-BJ cells and T47D cells, read-out: RatioGI50
[16] = Selectivity index, ratio of GI50 for human hTERT-BJ cells to GI50 for human WiDr cells after 48 hrs by SRB assay; assay type: toxicity; details: hTERT-BJ cells and WiDr cells, read-out: RatioGI50
Cholinesterase [17] = biological target: T1, Cholinesterase; assay: Potency index, ratio of tacrine IC50 to compound IC50 for human serum BuChe by Ellman's method
HepG2 = assay: Cytotoxicity against human HepG2 cells at 1 to 25 uM after 24 hrs by MTT assay; assay type: cell-based; details: hepg2, 24 h
[18] = Cytotoxicity in rat Primary cerebellar granule neuron assessed as cell viability at 1 uM after 24 hrs by MTT assay; assay type: cell-based, Cerebellar granule neurone; details: primary cerebellar granule neurons, read-out: Activity
[19] = test system: Cerebellar granule neurone; assay: Neuroprotective activity against 6-OHDA-induced cytotoxicity in rat primary cerebellar granule neuron at 1 to 25 uM by MTT assay; assay type: functional, cell-based
[20] = test system: Cerebellar granule neurone; assay: Cytotoxicity in rat Primary cerebellar granule neuron assessed as cell viability up to 5 uM after 24 hrs by MTT assay; assay type: cell-based
[21] = Stability of compound in human plasma at 10 uM measured up to 360 mins by LC-MS analysis; assay type: ADME, cell-free; details: 6 h
[22] = Cytotoxicity against human HepG2 cells assessed as cell survival at 1 to 25 uM after 24 hrs by MTT assay relative to control; assay type: cell-based; details: read-out: Activity
Primary neuron = assay: Neuroprotective activity against serum/K+ deprivation induced cytotoxicity in rat primary neuronal cells up to 10 uM by MTT assay; assay type: functional, cell-based

T3 sequence (O42275 whole entry): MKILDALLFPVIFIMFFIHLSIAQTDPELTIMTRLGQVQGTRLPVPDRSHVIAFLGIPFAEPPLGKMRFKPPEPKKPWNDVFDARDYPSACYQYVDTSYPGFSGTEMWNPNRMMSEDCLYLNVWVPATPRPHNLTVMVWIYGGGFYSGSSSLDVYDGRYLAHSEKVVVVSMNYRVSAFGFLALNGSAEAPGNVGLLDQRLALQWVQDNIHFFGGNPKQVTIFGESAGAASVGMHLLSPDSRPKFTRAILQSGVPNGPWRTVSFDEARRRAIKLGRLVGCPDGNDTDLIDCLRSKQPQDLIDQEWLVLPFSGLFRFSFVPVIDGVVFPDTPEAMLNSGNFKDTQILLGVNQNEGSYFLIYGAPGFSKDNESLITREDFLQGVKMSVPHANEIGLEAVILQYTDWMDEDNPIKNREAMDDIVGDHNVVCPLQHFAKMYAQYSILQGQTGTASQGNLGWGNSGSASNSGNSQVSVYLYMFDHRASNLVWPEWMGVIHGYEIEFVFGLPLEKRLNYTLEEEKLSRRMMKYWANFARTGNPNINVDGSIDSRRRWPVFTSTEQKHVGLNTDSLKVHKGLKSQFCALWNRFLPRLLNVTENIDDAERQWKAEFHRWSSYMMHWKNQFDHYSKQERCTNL
Acetylcholinesterase (Homo sapiens, UniProt P22303), sequence (P22303 whole entry): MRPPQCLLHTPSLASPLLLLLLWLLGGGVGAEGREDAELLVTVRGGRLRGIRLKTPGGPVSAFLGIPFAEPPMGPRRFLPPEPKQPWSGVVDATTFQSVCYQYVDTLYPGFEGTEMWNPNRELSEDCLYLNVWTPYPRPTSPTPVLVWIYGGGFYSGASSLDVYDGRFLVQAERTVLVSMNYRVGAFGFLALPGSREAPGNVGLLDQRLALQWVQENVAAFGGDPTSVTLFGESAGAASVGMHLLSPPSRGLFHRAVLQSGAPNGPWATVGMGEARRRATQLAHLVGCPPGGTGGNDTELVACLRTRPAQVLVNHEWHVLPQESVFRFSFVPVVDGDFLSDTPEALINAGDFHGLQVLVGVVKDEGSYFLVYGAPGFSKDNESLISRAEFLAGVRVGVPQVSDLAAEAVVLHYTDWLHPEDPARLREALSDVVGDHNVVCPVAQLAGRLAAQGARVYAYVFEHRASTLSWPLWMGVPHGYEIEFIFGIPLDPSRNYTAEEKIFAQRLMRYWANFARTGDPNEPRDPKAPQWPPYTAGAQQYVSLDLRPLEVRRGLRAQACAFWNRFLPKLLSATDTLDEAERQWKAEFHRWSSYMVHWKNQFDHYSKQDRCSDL
Cholinesterase (Equus caballus), sequence (P81908 whole entry): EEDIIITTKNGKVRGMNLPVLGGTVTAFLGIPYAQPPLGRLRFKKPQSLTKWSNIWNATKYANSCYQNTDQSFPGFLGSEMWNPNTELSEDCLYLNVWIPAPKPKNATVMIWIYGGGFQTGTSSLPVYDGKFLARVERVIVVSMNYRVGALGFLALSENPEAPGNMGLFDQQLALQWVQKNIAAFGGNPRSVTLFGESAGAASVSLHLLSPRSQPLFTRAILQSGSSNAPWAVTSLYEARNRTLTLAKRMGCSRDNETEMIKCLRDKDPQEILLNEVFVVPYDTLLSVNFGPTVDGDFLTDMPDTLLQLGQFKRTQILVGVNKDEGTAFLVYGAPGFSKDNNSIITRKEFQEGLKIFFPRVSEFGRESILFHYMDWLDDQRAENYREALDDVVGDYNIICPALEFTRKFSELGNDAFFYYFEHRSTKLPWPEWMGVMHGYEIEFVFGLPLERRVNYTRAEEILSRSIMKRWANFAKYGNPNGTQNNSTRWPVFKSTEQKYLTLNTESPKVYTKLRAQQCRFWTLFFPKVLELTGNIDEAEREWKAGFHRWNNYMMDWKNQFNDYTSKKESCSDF
T2 sequence (P81908 whole entry): as above
Amyloid-beta precursor protein (Homo sapiens), sequence (P05067 whole entry): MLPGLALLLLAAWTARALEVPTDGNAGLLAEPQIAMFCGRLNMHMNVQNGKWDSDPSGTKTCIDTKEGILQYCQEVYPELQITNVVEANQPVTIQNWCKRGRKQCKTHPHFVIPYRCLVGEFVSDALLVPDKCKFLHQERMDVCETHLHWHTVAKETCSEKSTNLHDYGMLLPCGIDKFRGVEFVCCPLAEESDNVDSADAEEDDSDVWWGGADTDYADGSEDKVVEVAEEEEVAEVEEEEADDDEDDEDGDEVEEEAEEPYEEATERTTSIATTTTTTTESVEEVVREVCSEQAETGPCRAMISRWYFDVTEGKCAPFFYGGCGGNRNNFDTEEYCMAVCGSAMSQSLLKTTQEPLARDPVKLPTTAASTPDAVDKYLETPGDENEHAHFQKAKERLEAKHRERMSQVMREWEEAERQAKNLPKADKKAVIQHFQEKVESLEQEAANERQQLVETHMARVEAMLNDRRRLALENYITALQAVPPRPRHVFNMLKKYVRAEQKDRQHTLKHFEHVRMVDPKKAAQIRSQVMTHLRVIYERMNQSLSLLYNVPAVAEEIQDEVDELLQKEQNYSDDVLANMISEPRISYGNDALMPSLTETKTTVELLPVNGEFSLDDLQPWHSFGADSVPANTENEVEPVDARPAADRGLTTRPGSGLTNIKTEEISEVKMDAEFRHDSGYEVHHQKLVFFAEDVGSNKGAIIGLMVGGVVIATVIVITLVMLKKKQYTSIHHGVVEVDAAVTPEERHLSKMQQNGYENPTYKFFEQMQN
T1 sequence (P06276 whole entry): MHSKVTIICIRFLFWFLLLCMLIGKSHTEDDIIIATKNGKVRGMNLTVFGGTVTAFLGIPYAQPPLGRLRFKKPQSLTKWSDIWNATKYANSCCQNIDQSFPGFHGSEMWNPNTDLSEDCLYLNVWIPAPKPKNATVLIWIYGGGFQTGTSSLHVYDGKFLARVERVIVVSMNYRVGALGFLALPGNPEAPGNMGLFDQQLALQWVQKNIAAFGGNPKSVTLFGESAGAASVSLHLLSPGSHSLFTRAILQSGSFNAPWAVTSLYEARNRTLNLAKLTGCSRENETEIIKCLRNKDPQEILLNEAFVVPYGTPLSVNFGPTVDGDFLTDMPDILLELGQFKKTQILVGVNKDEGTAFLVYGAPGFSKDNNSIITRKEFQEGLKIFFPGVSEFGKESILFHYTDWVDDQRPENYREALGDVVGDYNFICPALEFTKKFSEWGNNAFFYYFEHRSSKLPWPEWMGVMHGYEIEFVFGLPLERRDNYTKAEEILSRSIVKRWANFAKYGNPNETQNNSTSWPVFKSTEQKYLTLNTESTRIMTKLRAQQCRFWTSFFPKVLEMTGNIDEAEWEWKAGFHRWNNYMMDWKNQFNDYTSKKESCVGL

Structure (SMILES) | IC50 (Cholinesterase [1]) [nM] | Ki (Cholinesterase [3]) [nM] | Ki (Cholinesterase [4]) [nM] | Ki (Acetylcholinesterase [5]) [nM] | Ki (Acetylcholinesterase [6]) [nM] | IC50 (Acetylcholinesterase [7]) [nM] | also measured
c1ccc(COc2ccc(CCOCCCCCNc3c4c(nc5ccccc35)CCCC4)cc2)cc1 | 6.95 | 1.9 | 1.5 | 110 | 110 | 454 | inhibition [2]: 70%
C(=N\c1c2c(nc3ccccc13)CCCC2)/c1ccc(OCc2ccccc2)c(OCc2ccccc2)c1 | – | 637 | 173 | 20000 | 24000 | – | –
COc1ccc(/C=N/c2c3c(nc4ccccc24)CCCC3)cc1OC | – | 271 | 35 | 1900 | 2500 | – | GI50 (HBL-100): 43000 nM; GI50 (WiDr [8]): 31000 nM; GI50 (A549): 34000 nM; GI50 (HeLa): 43000 nM; GI50 at 48 h [9]: 16000 nM; inhibition [10]: Active; GI50 (SW1573): 39000 nM; GI50 (T47D [11]): 35000 nM
Oc1cc(/C=N/c2c3c(nc4ccccc24)CCCC3)cc(O)c1O | 120 | 51 | 5.8 | 170 | 400 | 1040 | –
Oc1ccc(CCOCCCCCNc2c3c(nc4ccccc24)CCCC3)cc1 | 6.06 | – | 4.5 | 100 | 140 | 142 | inhibition [12]: Active; inhibition [2]: 54.4%
Oc1ccc(CNc2c3c(nc4ccccc24)CCCC3)cc1 | – | 12 | 3.2 | 81 | 370 | – | inhibition [10]: Active
Oc1ccc(CCNc2c3c(nc4ccccc24)CCCC3)cc1 | – | 184 | – | 32 | 110 | – | inhibition [12]: Active
c1ccc(COc2ccc(CCNc3c4c(nc5ccccc35)CCCC4)cc2OCc2ccccc2)cc1 | – | 22 | 1.1 | 610 | 1600 | – | –
c1ccc2c(N3CCCC3)c3c(nc2c1)CCCC3 | – | 1200 | 304 | – | 3200 | – | GI50 (HBL-100): 27000 nM; GI50 (WiDr [8]): 21000 nM; GI50 (A549): 24000 nM; GI50 (HeLa): 18000 nM; GI50 at 48 h [9]: 50000 nM; GI50 (SW1573): 26000 nM; GI50 (T47D [11]): 18000 nM
C(=N\c1c2c(nc3ccccc13)CCCC2)/c1ccc(OCc2ccccc2)cc1 | – | 2920 | 643 | 23000 | 39000 | – | –
C(=N\c1c2c(nc3ccccc13)CCCC2)/c1cc(OCc2ccccc2)c(OCc2ccccc2)c(OCc2ccccc2)c1 | – | 704 | 192 | 3000 | 2300 | – | –
COc1ccc(CCOCCCCCNc2c3c(nc4ccccc24)CCCC3)cc1 | 2.92 | 29 | 2.9 | 75 | 75 | 216 | inhibition [2]: 63.5%
c1ccc(COc2ccc(CCNc3c4c(nc5ccccc35)CCCC4)cc2)cc1 | – | 22 | 1.1 | 610 | 1600 | – | –
COc1ccc(CNc2c3c(nc4ccccc24)CCCC3)cc1OC | – | 31 | 6.4 | 210 | 640 | – | –
Oc1ccc(CCNc2c3c(nc4ccccc24)CCCC3)cc1O | – | 128 | 28 | 590 | 870 | – | –
Oc1ccc(/C=N/c2c3c(nc4ccccc24)CCCC3)cc1 | 194 | – | 17 | 1800 | 3000 | 1470 | inhibition [12]: Active
Oc1ccc(CNc2c3c(nc4ccccc24)CCCC3)cc1O | 74.8 | 25 | 3.2 | 190 | 190 | 100 | –
O=c1[nH]cc(F)c(=O)[nH]1 [FLUOROURACIL] | – | – | – | – | – | – | GI50 (HBL-100): 5500 nM; GI50 (WiDr [8]): 49000 nM; GI50 (HeLa): 15000 nM; GI50 (SW1573): 4300 nM; GI50 (T47D [11]): 47000 nM
Oc1ccc(CNCCCCCCNc2c3c(nc4ccccc24)CCCC3)cc1O | 22.9 | 7.9 | 1.7 | 58 | 120 | 29 | –
c1ccc2c(N3CCCCC3)c3c(nc2c1)CCCC3 | – | 1900 | 275 | 2500 | 1800 | – | RatioGI50 (WiDr [13]): 10; GI50 (HBL-100): 19000 nM; RatioGI50 (T47D [14]): 10; GI50 (WiDr [8]): 4500 nM; GI50 (A549): 11000 nM; GI50 (HeLa): 13000 nM; GI50 at 48 h [9]: 25000 nM; GI50 (SW1573): 13000 nM; selectivity ratio at 48 h [15]: 5; selectivity ratio at 48 h [16]: 5; GI50 (T47D [11]): 5200 nM
BrCCCCCOCCc1ccc(OCc2ccccc2)cc1 | – | – | – | – | – | – | GI50 (HBL-100): > 100000 nM; GI50 (WiDr [8]): > 100000 nM; GI50 (A549): 93000 nM; GI50 (HeLa): > 100000 nM; GI50 (SW1573): > 100000 nM; GI50 (T47D [11]): 92000 nM
Oc1ccc(CCOCCCCCNc2c3c(nc4ccccc24)CCCC3)cc1O | 35.6 | 43 | 9 | 77 | 210 | 542 | inhibition [10]: Active
c1ccc(COc2ccc(CCOCCCCCNc3c4c(nc5ccccc35)CCCC4)cc2OCc2ccccc2)cc1 | 0.497 | 4.6 | 2.7 | 130 | 340 | 506 | Ratio IC50 (Cholinesterase [17]): 85; Activity (HepG2): Toxic; viability at 24 h, 1 µM [18]: 50%; inhibition [2]: 75.3%; Activity [19]: inactive
COc1ccc(CCOCCCCCNc2c3c(nc4ccccc24)CCCC3)cc1OC | 0.515 | 7 | 1.9 | 55 | 170 | 168 | Ratio IC50 (Cholinesterase [17]): 85; Activity [20]: Non-Toxic; Stability [21]: Stable; viability at 24 h, 25 µM [22]: 60 to 70%; inhibition [2]: 63.8%; Activity [19]: inactive; Activity (Primary neuron): Active
COc1ccc(CNCCCCCNc2c3c(nc4ccccc24)CCCC3)cc1OC | – | 30 | 9.9 | 120 | 160 | – | –
Oc1ccc(/C=N/c2c3c(nc4ccccc24)CCCC3)cc1O | 41.5 | 11 | 1.9 | 820 | 2100 | 609 | –
